Laboratory results taken from patent US8598153B2, “Method of treatment using fatty acid synthesis inhibitors” (Merck Sharp & Dohme Corp., priority 2006, dated 2013).

Columns and labels:
rat FAS = biological target: T1, rat FAS (Rattus norvegicus, UniProt P12785); assay: FAS inhibitory activity in cell free Flashplate assay (formation of 3H-palmitate), rat FAS; format: biochemical; details: rat liver FAS, cell free flash plate assay
T1 construct: The clarified supernatant was fractionated by ammonium sulfate precipitation; from tissue; host or cells: rat liver (fasted and high carbohydrate re-fed rats)
Description: (§1) Compounds with formula I (platensimycin) and II (platencin) were titrated against human or rat FAS using the Flashplate assay. Animal FAS activity was assayed radiochemically for the formation of ^3H-palmitate. The assay buffer contained 200 mM KPi, pH 7, 2 mM EDTA, 2.5 mM DTT, 5 μM Acetyl CoA (^3H-acetyl-CoA, Specific Activity=0.3 Ci/mmole), 21 μM malonyl-CoA, and 20 uM NADPH in a final reaction volume of 200 μl Assays are performed in 96-well Phospholipid coated FlashPlates (Perkin Elmer). The reaction was initiated by adding FAS (0.17 mUnits/well, 1 Unit=1μ mole of NADPH consumed/minute). The plates were incubated at RT for 5 minutes before adding 6 μl of perchloric acid to stop the reaction. The plates sat at RT for at least 3 hours, preferably overnight, before counting. Background was determined from wells without malonyl CoA. The source of Human FAS was SkBr3 cells. Cell extracts were processed by ammonium sulfate precipitation followed by DEAE chromatography essentially as described by Jayakumar et al., 1995 (Jayakumar A, Tai M H, Huang W Y, al-Feel W, Hsu M, Abu-Elheiga L, Chirala S S, Wakil S J. Human fatty acid synthase: properties and molecular cloning. Proc Natl Acad Sci USA. 1995 Sep. 12; 92(19):8695-9). […]

[1] = tested on: fatty acid synthesis in rat hepatocytes; assay: Fatty acid synthesis in rat hepatocytes in vitro (C14-acetate incorporation); format: cell-based; details: Hepatocyte, primary rat hepatocytes, read-out: Rat IC50 μM, fatty acid synthesis inhibitory activity
From the text: 115: 1030-1038 (2003) with modifications. […] The plates were gassed and sealed.

human FAS = biological target: T2, human FAS (Homo sapiens, UniProt P49327); assay: FAS inhibitory activity in cell free Flashplate assay (formation of 3H-palmitate), human FAS; format: biochemical; details: human FAS from SkBr3 cells, cell free flash plate assay
T2 construct: Cell extracts were processed by ammonium sulfate precipitation followed by DEAE chromatography; endogenous in cells; host or cells: SkBr3 human breast cancer cells (endogenous FAS, partially purified)
Description: as §1

[2] = tested on: fatty acid oxidation in rat hepatocytes
Description: Fatty acid oxidation in the hepatocytes was determined the conversion of C14-oleic acid to soluble acid products as described (Jiang G, Li Z, Liu F, Ellsworth K, Dallas-Yang Q, Wu M, Ronan J, Essau C, Murphy C, Szalkowski D, Bergeron R, Doebber T and Zhang B. Prevention of obesity in mice by antisense oligonucleotide inhibitors of stearoyl-CoA desaturase-1. J. Clin. Invest. 115: 1030-1038 (2003); Mannaerts G P, Debeer L J, Thomas J, ans DeSchepper P J. Mitochondrial and proxisomal fatty acid oxidation in liver homogenates and isolated hepatocytes from control and clofibrate-treated rats. J. Biol. Chem. 254:4585-4595 (1979)) with modifications. Hepatocytes seeded overnight and washed twice with PBS and then pre-incubated with compounds in 5 μl of DMSO in 2 ml medium199 plus 0.25% bovine serum albumin for 60 min. C14-oleic acid 0.25 μCi (NEN) was added to each well. The plates were gassed and sealed. After one hr incubation, 1 ml of medium was removed, mixed with 100 μl of 10% BSA and then 100 μl 60% HClO4. After centrifugation, 1 ml of the solution was counted the level of soluble acid products.

T2 sequence (P49327 whole entry): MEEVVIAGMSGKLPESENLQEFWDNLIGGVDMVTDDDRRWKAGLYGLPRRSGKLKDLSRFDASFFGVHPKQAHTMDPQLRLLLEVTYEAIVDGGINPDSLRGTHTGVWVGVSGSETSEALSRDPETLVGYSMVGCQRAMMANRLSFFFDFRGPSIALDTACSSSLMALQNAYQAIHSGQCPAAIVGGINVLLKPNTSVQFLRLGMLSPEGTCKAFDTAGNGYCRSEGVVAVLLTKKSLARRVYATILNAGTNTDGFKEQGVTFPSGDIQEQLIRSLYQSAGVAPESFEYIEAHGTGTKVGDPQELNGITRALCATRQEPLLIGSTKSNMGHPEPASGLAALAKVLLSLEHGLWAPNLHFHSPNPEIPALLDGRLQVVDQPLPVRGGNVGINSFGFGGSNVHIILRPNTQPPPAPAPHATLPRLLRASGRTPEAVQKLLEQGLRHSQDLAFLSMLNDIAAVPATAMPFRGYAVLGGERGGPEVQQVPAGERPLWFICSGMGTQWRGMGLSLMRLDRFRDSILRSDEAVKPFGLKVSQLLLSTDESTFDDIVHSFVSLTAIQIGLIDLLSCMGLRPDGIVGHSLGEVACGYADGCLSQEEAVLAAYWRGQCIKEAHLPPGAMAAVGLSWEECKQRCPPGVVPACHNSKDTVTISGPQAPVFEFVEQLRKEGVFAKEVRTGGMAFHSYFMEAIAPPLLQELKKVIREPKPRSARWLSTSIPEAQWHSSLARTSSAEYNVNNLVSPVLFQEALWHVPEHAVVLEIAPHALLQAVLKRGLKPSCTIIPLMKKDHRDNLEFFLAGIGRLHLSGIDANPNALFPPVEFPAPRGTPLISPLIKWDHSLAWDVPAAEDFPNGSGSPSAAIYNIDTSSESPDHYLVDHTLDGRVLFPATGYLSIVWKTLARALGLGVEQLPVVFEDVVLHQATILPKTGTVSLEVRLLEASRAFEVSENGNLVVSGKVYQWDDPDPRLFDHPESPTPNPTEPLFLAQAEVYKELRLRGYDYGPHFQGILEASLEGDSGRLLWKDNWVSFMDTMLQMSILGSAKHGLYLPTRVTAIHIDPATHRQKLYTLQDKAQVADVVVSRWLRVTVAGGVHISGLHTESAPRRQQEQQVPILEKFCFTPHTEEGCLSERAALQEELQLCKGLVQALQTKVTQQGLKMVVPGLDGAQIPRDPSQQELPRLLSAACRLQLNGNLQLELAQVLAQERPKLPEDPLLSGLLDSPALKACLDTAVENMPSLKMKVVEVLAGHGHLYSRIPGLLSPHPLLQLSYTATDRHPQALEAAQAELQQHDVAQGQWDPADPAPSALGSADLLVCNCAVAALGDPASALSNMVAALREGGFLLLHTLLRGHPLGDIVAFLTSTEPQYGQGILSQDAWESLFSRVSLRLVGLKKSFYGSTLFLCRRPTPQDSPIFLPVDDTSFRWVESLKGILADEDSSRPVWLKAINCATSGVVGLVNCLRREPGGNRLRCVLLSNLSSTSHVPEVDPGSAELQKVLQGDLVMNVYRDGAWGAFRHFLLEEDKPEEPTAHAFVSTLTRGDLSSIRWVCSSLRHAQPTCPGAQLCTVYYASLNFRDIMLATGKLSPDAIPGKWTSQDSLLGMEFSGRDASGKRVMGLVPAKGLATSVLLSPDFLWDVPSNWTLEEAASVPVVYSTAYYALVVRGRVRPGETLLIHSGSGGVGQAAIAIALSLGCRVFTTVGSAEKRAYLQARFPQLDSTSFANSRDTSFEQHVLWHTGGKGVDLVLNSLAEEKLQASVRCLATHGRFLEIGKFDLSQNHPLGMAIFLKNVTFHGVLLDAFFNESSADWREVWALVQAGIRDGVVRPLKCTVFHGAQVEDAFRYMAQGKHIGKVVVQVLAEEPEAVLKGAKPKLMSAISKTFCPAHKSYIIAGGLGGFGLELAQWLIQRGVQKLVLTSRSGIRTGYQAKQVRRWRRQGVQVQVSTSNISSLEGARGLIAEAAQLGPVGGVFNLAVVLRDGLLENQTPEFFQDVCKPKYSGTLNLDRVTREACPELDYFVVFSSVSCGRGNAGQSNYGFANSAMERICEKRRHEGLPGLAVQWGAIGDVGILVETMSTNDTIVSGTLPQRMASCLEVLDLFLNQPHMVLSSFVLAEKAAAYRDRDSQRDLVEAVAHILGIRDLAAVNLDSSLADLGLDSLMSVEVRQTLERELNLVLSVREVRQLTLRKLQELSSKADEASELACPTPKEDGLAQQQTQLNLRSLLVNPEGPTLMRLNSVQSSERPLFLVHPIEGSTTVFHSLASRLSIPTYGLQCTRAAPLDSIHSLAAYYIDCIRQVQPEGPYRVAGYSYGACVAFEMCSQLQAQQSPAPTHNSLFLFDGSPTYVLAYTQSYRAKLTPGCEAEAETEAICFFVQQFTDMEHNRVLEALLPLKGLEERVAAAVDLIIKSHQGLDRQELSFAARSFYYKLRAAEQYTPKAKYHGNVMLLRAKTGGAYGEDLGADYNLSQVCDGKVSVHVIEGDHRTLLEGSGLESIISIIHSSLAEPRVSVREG
T1 sequence (P12785 whole entry): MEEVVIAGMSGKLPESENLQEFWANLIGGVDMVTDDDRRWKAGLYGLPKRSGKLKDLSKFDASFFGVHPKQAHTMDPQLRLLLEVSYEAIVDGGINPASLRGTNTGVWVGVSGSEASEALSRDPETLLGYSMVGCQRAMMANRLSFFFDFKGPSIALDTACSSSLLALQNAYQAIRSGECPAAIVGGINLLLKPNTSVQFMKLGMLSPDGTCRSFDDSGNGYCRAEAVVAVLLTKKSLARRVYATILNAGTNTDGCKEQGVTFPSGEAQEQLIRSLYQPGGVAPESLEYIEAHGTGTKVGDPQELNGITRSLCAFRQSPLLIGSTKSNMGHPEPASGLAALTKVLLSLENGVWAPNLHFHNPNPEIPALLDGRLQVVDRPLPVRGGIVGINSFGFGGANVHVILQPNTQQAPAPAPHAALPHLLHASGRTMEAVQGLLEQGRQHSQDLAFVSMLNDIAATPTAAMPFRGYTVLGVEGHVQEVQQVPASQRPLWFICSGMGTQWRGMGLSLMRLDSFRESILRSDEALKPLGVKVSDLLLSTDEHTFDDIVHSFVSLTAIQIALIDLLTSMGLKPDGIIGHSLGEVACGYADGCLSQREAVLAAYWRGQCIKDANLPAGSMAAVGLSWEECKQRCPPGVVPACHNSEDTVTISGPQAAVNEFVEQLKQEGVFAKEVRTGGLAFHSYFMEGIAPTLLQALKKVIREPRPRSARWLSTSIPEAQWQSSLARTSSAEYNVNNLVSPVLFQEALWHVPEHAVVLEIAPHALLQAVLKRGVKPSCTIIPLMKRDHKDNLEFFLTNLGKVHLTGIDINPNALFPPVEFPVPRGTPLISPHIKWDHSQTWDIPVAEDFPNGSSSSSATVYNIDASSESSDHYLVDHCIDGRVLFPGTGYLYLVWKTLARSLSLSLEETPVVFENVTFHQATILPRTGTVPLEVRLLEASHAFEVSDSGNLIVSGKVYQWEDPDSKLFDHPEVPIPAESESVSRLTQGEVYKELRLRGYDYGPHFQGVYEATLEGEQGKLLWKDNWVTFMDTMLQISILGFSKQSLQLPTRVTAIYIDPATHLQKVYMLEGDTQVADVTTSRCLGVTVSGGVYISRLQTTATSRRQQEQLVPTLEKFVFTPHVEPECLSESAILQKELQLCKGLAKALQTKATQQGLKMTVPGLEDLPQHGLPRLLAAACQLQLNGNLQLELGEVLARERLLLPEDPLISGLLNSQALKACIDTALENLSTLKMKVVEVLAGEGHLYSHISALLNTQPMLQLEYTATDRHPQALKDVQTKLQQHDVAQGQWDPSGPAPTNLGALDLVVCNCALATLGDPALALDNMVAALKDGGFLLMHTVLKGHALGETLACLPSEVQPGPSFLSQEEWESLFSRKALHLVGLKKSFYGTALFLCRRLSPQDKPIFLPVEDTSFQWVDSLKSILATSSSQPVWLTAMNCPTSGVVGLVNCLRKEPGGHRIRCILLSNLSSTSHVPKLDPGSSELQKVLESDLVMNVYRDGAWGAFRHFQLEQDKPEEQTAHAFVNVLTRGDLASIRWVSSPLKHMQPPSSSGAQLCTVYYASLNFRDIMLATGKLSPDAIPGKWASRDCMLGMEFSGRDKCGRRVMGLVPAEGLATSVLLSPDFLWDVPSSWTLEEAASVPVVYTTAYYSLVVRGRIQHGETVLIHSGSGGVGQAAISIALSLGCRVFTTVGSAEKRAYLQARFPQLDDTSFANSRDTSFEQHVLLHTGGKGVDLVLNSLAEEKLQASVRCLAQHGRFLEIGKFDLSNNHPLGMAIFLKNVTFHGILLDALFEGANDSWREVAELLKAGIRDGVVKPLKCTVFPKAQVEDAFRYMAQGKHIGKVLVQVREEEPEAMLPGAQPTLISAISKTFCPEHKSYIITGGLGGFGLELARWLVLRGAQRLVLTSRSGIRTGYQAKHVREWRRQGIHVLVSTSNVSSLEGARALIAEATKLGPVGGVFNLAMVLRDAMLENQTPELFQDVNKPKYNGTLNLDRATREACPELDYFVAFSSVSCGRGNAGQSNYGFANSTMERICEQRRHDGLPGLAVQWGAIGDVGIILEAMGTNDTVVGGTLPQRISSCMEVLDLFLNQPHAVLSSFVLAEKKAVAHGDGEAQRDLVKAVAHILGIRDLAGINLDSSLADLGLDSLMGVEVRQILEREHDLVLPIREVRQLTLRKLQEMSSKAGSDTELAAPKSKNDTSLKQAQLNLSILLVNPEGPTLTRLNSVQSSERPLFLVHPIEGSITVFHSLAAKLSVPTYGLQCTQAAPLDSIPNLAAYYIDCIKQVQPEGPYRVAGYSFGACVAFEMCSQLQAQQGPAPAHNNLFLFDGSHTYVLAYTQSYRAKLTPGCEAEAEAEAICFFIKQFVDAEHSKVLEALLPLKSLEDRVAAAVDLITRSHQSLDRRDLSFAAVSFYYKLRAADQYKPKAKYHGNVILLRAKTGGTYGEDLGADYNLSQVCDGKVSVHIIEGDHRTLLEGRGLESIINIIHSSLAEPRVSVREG

| IC50 (rat FAS) [µM] | IC50 (human FAS) [µM] | Inhibition of Oxidation of Fatty Acids, Rat Hepatocyte (% of control at 10 uM) [2] | SMILES | IC50 [1] [µM] |
| --- | --- | --- | --- | --- |
| 0.18 | 0.3 | 59.7 % of control | C[C@]12C[C@@]34C=CC(=O)[C@@](C)(CCC(=O)Nc5c(O)ccc(C(=O)O)c5O)C3[C@H](CC1C4)O2 (stereo partly shown) [Formula I, platensimycin] | 0.093 |
| – | 6.3 | 66.0 % of control | C=C1C[C@@]23C=CC(=O)[C@@](C)(CCC(=O)Nc4c(O)ccc(C(=O)O)c4O)[C@@H]2C[C@@H]1CC3 [Formula II, platencin] | 3.24 |
